For data set [1], the system named is Pseudomonas aeruginosa. Put plainly: Antibacterial activity against Pseudomonas aeruginosa ATCC 27853 assessed as growth inhibition by microdilution method. Format: functional. In general terms: Dilution methods test growth across graded concentrations, often in twofold steps.
Data set [2] has as its system Pseudomonas aeruginosa. Put plainly: Antibacterial activity against Pseudomonas aeruginosa ATCC 27853 infected in sc dosed mouse septisemia model measured at 1 to 5 hrs. Format: functional. Conditions: ATCC 27853, sc.
The subject of data set [3] is Staphylococcus aureus. Put plainly: Antibacterial activity against 10 clinical isolates of methicillin resistant Staphylococcus aureus […] assessed as growth inhibition by broth dilution method. Format: functional.
For data set [4], the system named is Pseudomonas aeruginosa. The data set can be described thus: Bactericidal activity against Pseudomonas aeruginosa PA14 after 16 to 20 hrs by agar diffusion assay. Format: functional.
The subject of data set [5] is Pseudomonas aeruginosa. The data set can be described thus: Antibacterial activity against Pseudomonas aeruginosa PA14 assessed as growth inhibition after 16 to 20 hrs by agar diffusion assay. Format: functional, organism-based.
The subject of data set [6] is Staphylococcus aureus. The data set can be described thus: Antibacterial activity against Staphylococcus aureus PAS8001 harboring SPase P29S mutant assessed as growth inhibition after 24 hrs by micro-broth dilution method. To be noted: PAS8001, 24 h. Format: functional.
Data set [7] concerns Staphylococcus epidermidis. Put plainly: Antibacterial activity against wild type Staphylococcus epidermidis RP62A assessed as growth inhibition after 24 hrs by micro-broth dilution method. The format is functional.
Data set [8] has as its system Pseudomonas aeruginosa. The data set can be described thus: Antibacterial activity against Pseudomonas aeruginosa PAS2006 harboring SPase P84S mutant assessed as growth inhibition after 24 hrs by micro-broth dilution method. The format is functional. Conditions: PAS2006, 24 h.
For data set [9], the system named is Escherichia coli. The data set can be described thus: Antibacterial activity against Escherichia coli PAS0232 harboring SPase P84S mutant assessed as growth inhibition after 24 hrs by micro-broth dilution method. The format is functional. Conditions: PAS0232, 24 h.
Data set [10] has as its system Staphylococcus epidermidis. Put plainly: Antibacterial activity against Staphylococcus epidermidis PAS9001 harboring SPase S92P mutant assessed as growth inhibition after 24 hrs by micro-broth dilution method. The format is functional. Conditions: PAS9001, 24 h.
A short description of data set [11]: Ratio of MIC for Staphylococcus epidermidis PAS9001 harboring SPase S92P mutant to MIC for wild type Staphylococcus epidermidis RP62A. The format is functional.
The subject of the next data set is Bacillus subtilis. Put plainly: Antibacterial activity against Bacillus subtilis assessed as growth inhibition. Format: functional.
For data set [12], the system named is Escherichia coli. The data set can be described thus: Antibacterial activity against Escherichia coli SANK 70569 assessed as growth inhibition. Format: functional.
Data set [13] relates to Staphylococcus aureus. The data set can be described thus: Antibacterial activity against 24 clinical isolates of methicillin resistant Staphylococcus aureus […] assessed as growth inhibition by broth dilution method. Format: functional.
Data set [14] concerns Staphylococcus aureus. Put plainly: Antibacterial activity against Staphylococcus aureus assessed as growth inhibition. The format is functional.
In data set [15] the test system is Escherichia coli. The data set can be described thus: Antibacterial activity against Escherichia coli clinical isolate assessed as growth inhibition. The format is functional.
For the next data set, the system named is Acinetobacter baumannii. The data set can be described thus: Antibacterial activity against Acinetobacter baumannii clinical isolate assessed as growth inhibition. The format is functional.
The nature of data set [16]: Cytotoxicity against human Fa2N-4 cells. The format is cell-based.
The subject of another data set is HepG2. The data set can be described thus: Cytotoxicity against human HepG2 cells. Format: cell-based.
Another data set concerns Klebsiella pneumoniae. The data set can be described thus: Antibacterial activity against Klebsiella pneumoniae clinical isolate assessed as growth inhibition. Format: functional.
Data set [17] relates to Pseudomonas aeruginosa. The data set can be described thus: Antibacterial activity against Pseudomonas aeruginosa clinical isolate assessed as growth inhibition. The format is functional.
In data set [18] the test system is Staphylococcus aureus. The data set can be described thus: Antibacterial activity against methicillin sensitive Staphylococcus aureus MB2865 assessed as growth inhibition after 20 hrs by agar dilution method. The format is functional. To be noted: MB2865, 20 h. For orientation: Agar dilution tests growth on a series of plates holding different concentrations.

Data set [19] relates to Staphylococcus aureus. The data set can be described thus: Antibacterial activity against methicillin resistant Staphylococcus aureus COL MB5393 assessed as growth inhibition after 20 hrs by agar dilution method. To be noted: COL MB5393, 20 h. Format: functional.
Data set [20] relates to Escherichia coli. Put plainly: Antibacterial activity against Escherichia coli MB2884 assessed as growth inhibition after 20 hrs by agar dilution method. The format is functional. Conditions: MB2884, 20 h.
Data set [21] relates to Escherichia coli. The data set can be described thus: Antibacterial activity against Escherichia coli MB5746 harboring envA1/TolC efflux pump mutant assessed as growth inhibition after 20 hrs by agar dilution method. Format: functional. Conditions: MB5746, 20 h.
Data set [22] relates to Escherichia coli. Put plainly: Antibacterial activity against Escherichia coli NCTC 10418 assessed as growth inhibition. The format is functional.

Values after ≈ are worked out from the molar mass of the structure shown. Starred links: 1 amine or outer side, 2 acyl side, 3 side chain; linkers in the order of their positions; H or OH if unused. Positions of bridges follow the written chain, without caps; N, C: chain ends. Non-standard residues stand in square brackets, D forms with d. Residues, ends and D or L forms follow the SMILES beside them. X1 = CC(C)=CCc1ccc(Cl)c2[nH]cc(CC(N[*:1])C(=O)[*:2])c12; Trp(7-Cl) = N[CH](Cc1c[nH]c2c(Cl)cccc12)C(=O)O; Malonyl = O=C(CC(=O)[*:2])[*:1]; Cya = N[CH](CS(=O)(=O)O)C(=O)O; Dab = NCC[C@H](N)C(=O)O

With `CC[C@H](C)[C@@H]1NC(=O)[C@H](Cc2c[nH]c3ccccc23)NC(=O)[C@H]([C@@H](C)O)NC(=O)[C@@H]2CCCN2C(=O)[C@@H]2CCCN2C(=O)[C@H](CCN)NC(=O)[C@H](C)NC(=O)[C@H](CCN)NC(=O)[C@H](CCN)NC(=O)[C@H](Cc2c[nH]c3ccccc23)NC(=O)[C@H](CCN)NC(=O)[C@H](CCN)NC(=O)[C@H](CCCCN)NC(=O)[C@H](CCN)NC1=O` (cyclo(A[Dab]PPTWI[Dab]K[Dab][Dab]W[Dab][Dab])), the minimum inhibitory concentration (MIC) (usually the least concentration at which growth counts as inhibited) in the data set with Pseudomonas aeruginosa [1] is 8 ng/mL. Also, it took a dose of 0.25 mg/kg to reach the 50% effect level with Pseudomonas aeruginosa [2] (ED50).

On to `CCCC(C)/C=C(/C)C(=O)OC(CCCCCCC/C=C/C(=O)NCCC(=O)NC(CS(=O)(=O)O)C(=O)N(C)C1C(=O)NC(C)C(=O)NC(C(=O)O)Cc2ccc(OS(=O)(=O)O)c(c2)-c2cc1cc(OS(=O)(=O)O)c2O[C@H]1O[C@H](C)[C@@H](O)[C@H](O)[C@@H]1O)CCC(C)C` (stereo partly drawn), for which, in the data set on Staphylococcus aureus [3], the MIC worked out at 0.5 µg/mL (≈ 0.371 µM).

Consider `CCCCCCC(CCCCCC(O)C(N)=O)OC(=O)C1CC=CN1C(=O)c1ccccc1O` (stereo not drawn), for which the MBC – broadly, the lowest tested concentration that kills the bacteria rather than only halting them – in the data set on Pseudomonas aeruginosa [4] was 100 µg/mL (≈ 211 µM). Also, the IC50 (in general, the concentration at which inhibition is half-maximal) with Pseudomonas aeruginosa [5] amounted to 0.16 µg/mL (≈ 0.337 µM).

For `CCCCCCCCCCCCCCCC(=O)N(C)[C@H](CO)C(=O)N[C@H](C)C(=O)NCC(=O)N(C)[C@@H]1C(=O)N[C@@H](C)C(=O)N[C@H](C(=O)O)Cc2ccc(O)c(c2)-c2cc1ccc2O` [ARYLOMYCIN C16], the MIC with Staphylococcus aureus [6] stood at 2 µg/mL (≈ 2.27 µM); in data set [7], 0.25 µg/mL (≈ 0.284 µM); in the data set on Pseudomonas aeruginosa [8] it was 8 µg/mL (≈ 9.08 µM); with Escherichia coli [9], 4 µg/mL (≈ 4.54 µM); in [10], 8 µg/mL (≈ 9.08 µM). Also, the Ratio in data set [11] turned out to be 32.

`C/C(=C\c1ccc(N(C)C)cc1)C(=O)N[C@@H]1[C@H](O)[C@@H](O)[C@H]2OC(OC(C(=O)O)C(O)CO)O[C@H]2[C@@H]1N(C)C` (stereo partly drawn): the MIC in the data set on Bacillus subtilis turned out to be 70 µg/mL (≈ 130 µM).

For `CCCCCCCCCC[C@H]1OC(=O)CNC(=O)[C@H]([C@H](C)O)NC(=O)[C@H](CO)NC(=O)[C@H]([C@H](C)CC)NC(=O)[C@H](CC(C)C)N(C)C(=O)[C@@H]1C`, the MIC in the data set on Escherichia coli [12] stood at 1.56 µg/mL (≈ 2.19 µM).

As to `CC(C)=CCc1ccc(Cl)c2[nH]cc(CC3NC(=O)C(Cc4c[nH]c5c(Cl)cccc45)NC(=O)C4CCCN4C(=O)C(CS(=O)(=O)O)NC(=O)C(NC(=O)C(NC(=O)C(C)NC(=O)CC(=O)O)C(C)C)COC(=O)C(CO)NC(=O)C(CC(C)C)NC(=O)C(C(C)C)NC3=O)c12` (stereo not drawn) (Malonyl-AVS[Cya]P[Trp(7-Cl)][X1]VLS; ester 3-C; configuration not given here), the MIC with Staphylococcus aureus [13] came out at 16 µg/mL (≈ 11.4 µM).

For the compound `[C-]#[N+]C(=C)[C@@](Cc1ccc(OC)cc1)([N+]#[C-])C1C[C@@H](OC(=O)CO)CC[C@@H]1O` (stereo partly drawn), the MIC was more than 128 µg/mL in the data set on Staphylococcus aureus [14]; 0.256 µg/mL (≈ 0.667 µM) in the data set with Escherichia coli [15]; 0.256 µg/mL (≈ 0.667 µM) in the data set on Acinetobacter baumannii; 0.256 µg/mL (≈ 0.667 µM) in the data set with Klebsiella pneumoniae; 0.256 µg/mL (≈ 0.667 µM) in the data set on Pseudomonas aeruginosa [17]. For the same compound, the Activity (in data set [16]; in the data set with HepG2) was more than 512 µg/mL in each case.

On to `C=C1CC[C@@H](O[C@H]2C[C@@](O)([C@H](C)NC(=O)c3[nH]c(C)c(Cl)c3Cl)[C@H](O)[C@@H](C)O2)[C@@H]2C=C[C@H](C)C(/C(O)=C3\C(=O)[C@H](C(C)C)N([C@H]4O[C@H](C)[C@H](OC(N)=O)[C@H](OC(C)=O)[C@@H]4OC)C3=O)[C@@H]12` (stereo partly drawn) [KIBDELOMYCIN], for which the MIC in the data set with Staphylococcus aureus [18] is 2 µg/mL (≈ 2.13 µM); in the data set on Staphylococcus aureus [19], 0.5 µg/mL (≈ 0.532 µM); in the data set on Escherichia coli [20] it was more than 64 µg/mL; in the data set on Escherichia coli [21] it was 32 µg/mL (≈ 34 µM).

Take `CCC[C@@H]1OC(=O)[C@@H](C)C[C@H](C)CCCCC(=O)CCC[C@@H](CC)/C=C/C=C(\COC)CC[C@@H](O)[C@@H](O)C[C@H](O)CNC1=O`: the MIC in the data set on Escherichia coli [22] came out at 6.25 µg/mL (≈ 10 µM).

With `CCCCCC[C@H]1OC(=O)CNC(=O)[C@H]([C@H](C)O)NC(=O)[C@H](CO)NC(=O)[C@H]([C@H](C)CC)NC(=O)[C@H](CC(C)C)N(C)C(=O)[C@@H]1C`, the MIC in the data set on Escherichia coli [12] is 12.5 µg/mL (≈ 19.1 µM).

Regarding `CCC[C@@H]1OC(=O)[C@@H](C)C[C@H](C)CCCCC(=O)CCC[C@@H](CC)CC/C=C(\COC)CC[C@@H](O)[C@@H](O)C[C@H](O)CNC1=O`, the MIC in the data set with Escherichia coli [22] turned out to be 3.12 µg/mL (≈ 4.98 µM).

(Values after ChEMBL document CHEMBL3102772, “New natural products as new leads for antibacterial drug discovery” (Bioorg Med Chem Lett, 2014).)
